{"source": "paper PMC8372184", "about": "(Synlett : accounts and rapid communications in synthetic …, 2021)", "key": {"GetF [1]": {"molecular_target": "T1, GetF (Streptomyces sp. L-49973, UniProt E0WFM0)", "T1 sequence (E0WFM0 1-363)": "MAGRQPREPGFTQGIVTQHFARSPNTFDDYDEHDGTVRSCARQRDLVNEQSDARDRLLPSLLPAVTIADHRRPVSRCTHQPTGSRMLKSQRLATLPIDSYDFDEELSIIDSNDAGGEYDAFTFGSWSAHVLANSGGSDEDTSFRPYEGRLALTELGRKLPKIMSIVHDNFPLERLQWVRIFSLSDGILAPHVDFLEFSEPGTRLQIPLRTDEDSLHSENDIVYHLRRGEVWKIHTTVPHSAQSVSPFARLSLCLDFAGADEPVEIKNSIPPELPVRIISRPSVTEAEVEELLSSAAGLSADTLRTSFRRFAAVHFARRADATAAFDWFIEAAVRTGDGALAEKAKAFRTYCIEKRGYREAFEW", "assay": "preparative-scale hydroxylation", "format": "cell-based", "settings": "alpha-ketoglutarate, Fe(II)"}, "GlbB": {"molecular_target": "T2, GlbB (Caldimonas brevitalea, UniProt A8KCI8)", "T2 sequence (A8KCI8 1-286)": "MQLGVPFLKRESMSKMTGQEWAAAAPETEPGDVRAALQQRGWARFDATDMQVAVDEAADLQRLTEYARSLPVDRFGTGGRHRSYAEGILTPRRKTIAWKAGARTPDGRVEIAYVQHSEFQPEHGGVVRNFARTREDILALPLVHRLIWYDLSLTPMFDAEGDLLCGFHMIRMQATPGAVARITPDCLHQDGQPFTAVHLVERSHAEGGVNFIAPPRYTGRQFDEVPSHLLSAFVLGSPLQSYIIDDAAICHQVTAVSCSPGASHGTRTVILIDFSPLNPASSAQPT", "assay": "4-hydroxylation", "format": "biochemical", "settings": "alpha-ketoglutarate, Fe(II)"}, "KDO1": {"molecular_target": "T3, KDO1 (Catenulispora acidiphila, UniProt C7QJ42)", "T3 sequence (C7QJ42 1-358)": "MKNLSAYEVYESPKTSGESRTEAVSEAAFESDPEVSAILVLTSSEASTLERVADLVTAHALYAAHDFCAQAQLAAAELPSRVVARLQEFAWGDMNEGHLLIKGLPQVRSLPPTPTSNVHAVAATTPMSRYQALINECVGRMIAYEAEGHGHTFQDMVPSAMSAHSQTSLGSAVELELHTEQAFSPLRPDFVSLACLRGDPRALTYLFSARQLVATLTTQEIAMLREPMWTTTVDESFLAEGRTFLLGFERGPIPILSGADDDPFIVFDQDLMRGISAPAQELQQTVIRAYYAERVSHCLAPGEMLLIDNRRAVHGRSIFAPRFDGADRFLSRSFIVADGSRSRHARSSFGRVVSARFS", "assay": "gram-scale 3-hydroxylation in E. coli lysate", "format": "biochemical", "settings": "alpha-ketoglutarate, Fe(II)"}, "GetF [2]": {"molecular_target": "T1, GetF", "assay": "C3 hydroxylation, product isolated after Boc protection", "format": "cell-based", "settings": "alpha-ketoglutarate, Fe(II)"}, "GetI": {"molecular_target": "T4, GetI (Streptomyces sp. L-49973, UniProt E0WFM2)", "T4 sequence (E0WFM2 1-345)": "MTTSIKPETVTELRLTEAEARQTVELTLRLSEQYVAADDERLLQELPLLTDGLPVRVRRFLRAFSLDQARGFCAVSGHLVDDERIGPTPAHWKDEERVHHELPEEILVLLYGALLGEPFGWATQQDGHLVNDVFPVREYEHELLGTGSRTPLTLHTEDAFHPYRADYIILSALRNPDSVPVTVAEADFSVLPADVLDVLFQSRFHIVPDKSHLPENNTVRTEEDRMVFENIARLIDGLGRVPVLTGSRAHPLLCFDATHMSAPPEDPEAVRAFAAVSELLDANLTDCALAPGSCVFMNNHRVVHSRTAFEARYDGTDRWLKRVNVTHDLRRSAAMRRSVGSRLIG", "assay": "preparative-scale 4-hydroxylation", "format": "cell-based", "settings": "alpha-ketoglutarate, Fe(II)"}, "GriE": {"molecular_target": "T5, GriE (Streptomyces muensis, UniProt A0A0E3URV8)", "T5 sequence (A0A0E3URV8 1-270)": "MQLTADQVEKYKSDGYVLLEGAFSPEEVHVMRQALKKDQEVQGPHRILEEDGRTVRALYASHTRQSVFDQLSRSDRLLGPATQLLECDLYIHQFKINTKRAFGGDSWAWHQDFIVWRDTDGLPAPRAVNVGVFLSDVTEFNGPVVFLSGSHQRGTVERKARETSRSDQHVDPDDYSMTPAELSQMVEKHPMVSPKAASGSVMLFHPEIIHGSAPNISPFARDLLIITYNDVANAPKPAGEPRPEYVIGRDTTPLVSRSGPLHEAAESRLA", "assay": "LCMS of C5 hydroxylation", "format": "biochemical", "settings": "alpha-ketoglutarate, Fe(II), ascorbate"}}}
{"molecule": "O=C(O)[C@@H]1CCCCN1", "note": "[L-Pip]", "values": [{"measurement": "preparative-scale hydroxylation", "setting": "GetF [1]", "value": "Biocatalytic hydroxylation of L-Pip and L-Cit was performed on preparative scale with GetF and GetI"}]}
{"molecule": "NCCCC[C@H](N)C(=O)O", "note": "[L-lysine]", "values": [{"measurement": "4-hydroxylation", "setting": "GlbB", "value": "GlbB was shown to be a highly efficient enzyme capable of hydroxylating L-lysine"}, {"measurement": "gram-scale 3-hydroxylation in E. coli lysate", "setting": "KDO1", "value": "optimizing the biocatalytic hydroxylation with lysates of E. coli expressing KDO1"}]}
{"molecule": "C[C@H]1CCN[C@@H]1C(=O)O", "note": "[compound 15, proline derivative 15]", "values": [{"measurement": "C3 hydroxylation, product isolated after Boc protection", "setting": "GetF [2]", "value": "The final C3 hydroxylation was performed with GetF"}]}
{"molecule": "NC(=O)NCCC[C@H](N)C(=O)O", "note": "[L-Cit]", "values": [{"measurement": "preparative-scale 4-hydroxylation", "setting": "GetI", "value": "Biocatalytic hydroxylation of L-Pip and L-Cit was performed on preparative scale with GetF and GetI"}]}
{"molecule": "CC(C)C[C@H](N)C(=O)O", "note": "[L-leucine]", "values": [{"measurement": "LCMS of C5 hydroxylation", "setting": "GriE", "value": "GriE revealed a highly active enzyme that is capable of hydroxylating L-leucine"}]}
